In ChEMBL document CHEMBL5726856, “ULK1 inhibitors and methods using same” (2019) one finds IC50 data, which are given here for 47 compounds.

Some results are limits rather than exact numbers.

The target of this assay is T1, Serine/threonine-protein kinase ULK1 (Homo sapiens, UniProt O75385).
T1 sequence (O75385 whole entry): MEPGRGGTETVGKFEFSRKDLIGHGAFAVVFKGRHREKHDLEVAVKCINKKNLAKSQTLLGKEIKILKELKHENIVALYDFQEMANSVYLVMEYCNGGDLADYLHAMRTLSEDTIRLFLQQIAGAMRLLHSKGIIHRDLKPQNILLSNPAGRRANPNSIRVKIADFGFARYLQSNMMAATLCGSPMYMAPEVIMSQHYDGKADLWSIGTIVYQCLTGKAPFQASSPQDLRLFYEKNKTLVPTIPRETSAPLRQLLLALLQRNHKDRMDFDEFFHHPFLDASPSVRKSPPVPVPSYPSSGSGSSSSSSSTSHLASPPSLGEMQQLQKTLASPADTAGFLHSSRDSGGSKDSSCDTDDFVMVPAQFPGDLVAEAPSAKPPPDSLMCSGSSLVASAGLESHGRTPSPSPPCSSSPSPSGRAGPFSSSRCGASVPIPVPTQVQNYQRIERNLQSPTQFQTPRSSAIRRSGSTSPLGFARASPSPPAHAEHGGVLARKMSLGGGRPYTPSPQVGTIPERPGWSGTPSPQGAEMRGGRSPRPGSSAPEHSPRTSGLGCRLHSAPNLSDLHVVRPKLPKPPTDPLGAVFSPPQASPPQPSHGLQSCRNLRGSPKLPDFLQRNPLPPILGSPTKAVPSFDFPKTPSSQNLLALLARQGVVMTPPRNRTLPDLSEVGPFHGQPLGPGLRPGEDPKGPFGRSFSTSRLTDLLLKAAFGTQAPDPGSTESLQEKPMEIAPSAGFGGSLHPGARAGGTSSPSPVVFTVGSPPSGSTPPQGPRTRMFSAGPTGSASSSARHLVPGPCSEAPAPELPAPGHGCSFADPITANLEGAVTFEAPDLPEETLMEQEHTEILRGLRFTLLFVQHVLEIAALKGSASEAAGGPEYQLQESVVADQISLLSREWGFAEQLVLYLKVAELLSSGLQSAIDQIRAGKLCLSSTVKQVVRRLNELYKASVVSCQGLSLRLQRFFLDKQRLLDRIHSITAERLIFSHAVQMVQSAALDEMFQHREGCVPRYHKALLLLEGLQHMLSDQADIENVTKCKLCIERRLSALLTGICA
Put plainly: ULK1 inhibition assay: Gamma-32P assays to measure ULK1 kinase activity were performed as previously described. Briefly, Flag ULK1 was transfected into HEK293T cells and 20 hours later treated as indicated. The immmunoprecipitate was washed in IP buffer 3 times, and washed in kinase buffer (25 mM MOPS, pH 7.5, 1 mM EGTA, 0.1 mM Na3VO4, 15 mM MgCl2,). Hot and cold ATP were added at a 100 μM final concentration. As substrates, GST or the recombinant protein GST-Atg101 purified from E. coli were used at 1 μg for each reaction. Reactions were boiled, run out on SDS page gel. The gel was dried, and imaged using PhosphoImager software. For cold assays to asses ULK1, Flag ULK1 which was transiently overexpressed and immunoprecipited from HEK293T cells. Reactions were then run out on SDS page gel, transferred to PVDF membrane and blotted for total levelsFluorescence MicroscopyVps34flox/flox MEFs were reconstituted with Flag-VPS34 and either p40FX or GFP-DFCP1. 48 hours post infection with adenovirus expressing Cre recombinase (MOI of 100), cells were plated on glass coverslips at a density of 3×10^5 cells per well in 6-well tissue culture plates. 18 h later, cells were fixed in 4% PFA in PBS for 10 minutes and permeabilized in 0.2% Triton in PBS for 10 minutes. The following primary antibodies were used: mouse anti-Myc epitope and LC3B XP antibody (2276 and 3868 respectively, Cell Signaling Technologies). Secondary antibodies were anti-rabbit Alexa488 and anti-mouse Alexa594 (Molecular Probes, 1:1000. Cells were then fixed and counter stained with DAPI. Coverslips were mounted in FluoromountG (SouthernBiothech). Images were acquired on a Zeiss Axioplan2 epifluorescence microscope coupled to the Openlab software. Confocal images of mitotracker were taken on Zeiss LSM 710 laser scanning confocal microscope. 10 random fields per condition were acquired using the 100× objective and representative images shown. Glass coverslips were mounted directly on plate with FluoromountG and images taken on Zeiss Axioplan2 epifluorescence microscope.
`CCN1CCOc2cc(Nc3ncc(C(F)(F)F)c(NC4CC4)n3)cnc21`: the IC50 is below 0.2 µM.
Then `COc1ccc(Nc2ncc(C(F)(F)F)c(NC3CC3)n2)cc1OC`, with below 0.2 µM; and `COc1cc(Nc2ncc(Br)c(-n3nnc4ccccc43)n2)cc(OC)c1OC`, with above 2 µM; and `COc1cc(Nc2ncc(Cl)c(Nc3ccccc3CO)n2)cc(OC)c1OC`, with above 2 µM.
Then `COc1cc(Nc2ncc(Br)c(Oc3cccc4cc[nH]c34)n2)cc(OC)c1OC`, with above 2 µM.
Then `CNC(=O)c1ccc(OC)cc1Oc1ncc(Br)c(Nc2cc(OC)c(OC)c(OC)c2)n1`, with above 2 µM; and `Nc1ccccc1Oc1nc(Nc2ccc3c(c2)OCO3)ncc1Br`, with below 0.2 µM.
Regarding `O=C1CCc2cc(Nc3ncc(C(F)(F)F)c(Nc4ccc5c(c4)OCO5)n3)ccc2N1`, the IC50 is below 0.2 µM.
Then `COc1cc(Nc2ncc(Br)c(Oc3ccccc3NC(=O)C(F)(F)F)n2)cc(OC)c1OC`, with below 0.2 µM; and `COc1cc(Nc2nc(Oc3cccc4c3N(C(C)=O)CCC4)ncc2Br)cc(O)c1OC`, with below 0.2 µM; and `COc1cc(Nc2ncc(Br)c(Oc3cccc4c3CCCC4)n2)cc(OC)c1OC`, with above 2 µM.
Under `NC(=O)c1cccc(Nc2ncc(C(F)(F)F)c(Nc3ccc4c(c3)OCO4)n2)c1` stands below 0.2 µM; under `COc1cc(Nc2nc(Oc3cccc4cc[nH]c34)ncc2Br)cc(O)c1OC`, above 2 µM.
Then `COc1ccc(Nc2ncc(C(F)(F)F)c(Nc3ccc4c(c3)OCO4)n2)cc1`, with below 0.2 µM; and `CNC(=O)c1ccc(OC)cc1Oc1nc(Nc2cc(O)c(OC)c(OC)c2)ncc1Br`, with above 2 µM; and `COc1cc(Nc2ncc(Br)c(Oc3ccccc3NS(C)(=O)=O)n2)cc(OC)c1OC`, with above 2 µM.
On to `COc1cc(Nc2ncc(Br)c(Oc3ccccc3[S+](C)[O-])n2)cc(OC)c1OC` (configuration not stated), for which the IC50 is above 2 µM.
For `COCC(C)(CN(C)C)Nc1nc(Nc2ccc3c(c2)CCC(=O)N3)ncc1C(F)(F)F` (configuration not stated), the IC50 was above 2 µM.
For the compound `CNC(=O)Cc1ccccc1Oc1nc(Nc2cc(OC)c(OC)c(OC)c2)ncc1Br`, the IC50 is above 2 µM.
Under `COc1cc(Nc2ncc(Br)c(Oc3cccc4ccncc34)n2)cc(OC)c1OC` stands above 2 µM; under `COc1cc(Nc2ncc(Br)c(Oc3cccc4cccnc34)n2)cc(OC)c1OC`, above 2 µM.
As for `COc1cc(Nc2ncc(Br)c(Oc3ccccc3O)n2)cc(OC)c1OC`, the IC50 was above 2 µM.
Then `CC(=O)NNc1nc(Nc2ccc3c(c2)CCC(=O)N3)ncc1C(F)(F)F`, with above 2 µM; and `CNC(=O)c1ccccc1COc1nc(Nc2cc(OC)c(OC)c(OC)c2)ncc1Br`, with above 2 µM.
Then `CCN1CCOc2cc(Nc3nc(Nc4ccc5c(c4)CCC(=O)N5)ncc3Br)cnc21`, with below 0.2 µM; and `FC(F)(F)c1cnc(Nc2cccc(Cl)c2Cl)nc1Nc1ccc2c(c1)OCO2`, with above 2 µM; and `Oc1nc(Nc2cnc3[nH]ccc3c2)ncc1C(F)(F)F`, with above 2 µM.
Under `COc1cc(Nc2ncc(Br)c(Oc3ccccc3C3=NC(C)(C)CO3)n2)cc(OC)c1OC` stands above 2 µM; under `FC(F)(F)c1cnc(Nc2ccc(-n3cccc3)cc2)nc1Nc1ccc2c(c1)OCO2`, below 0.2 µM; under `FC(F)(F)c1cnc(Nc2cccc(Oc3ccccc3)c2)nc1Nc1ccc2c(c1)OCO2`, above 2 µM.
As for `CC(=O)Nc1ccccc1Oc1nc(Nc2ccc3c(c2)OCO3)ncc1Br`, the IC50 was above 2 µM.
Then `OCc1ccccc1Nc1nc(Nc2cc(F)c(F)c(F)c2)ncc1Br`, with above 2 µM; and `O=C1CCc2cc(Nc3ncc(C(F)(F)F)c(NCCCNC(=O)C4CC4)n3)ccc2N1`, with below 0.2 µM.
Under `COc1cc(Nc2ncc(Br)c(Oc3cccc(O)c3[N+](=O)[O-])n2)cc(OC)c1OC` stands above 2 µM.
Under `COc1cc(Nc2ncc(C(F)(F)F)c(Oc3ccccc3N)n2)cc(OC)c1OC` stands below 0.2 µM; under `CNC(=O)c1ccccc1Oc1nc(Nc2ccc3c(c2)CCC(=O)N3)ncc1Br`, above 2 µM.
`FC(F)(F)c1cnc(Nc2ccc3c(c2)CCC3)nc1Nc1ccc2c(c1)OCO2`: the IC50 was below 0.2 µM.
Then `O=c1[nH][nH]c(=O)c2cc(Nc3ncc(C(F)(F)F)c(NC4CC4)n3)ccc12`, with below 0.2 µM; and `O=C1CCc2cc(Nc3ncc(C(F)(F)F)c(Nc4ccccc4CO)n3)ccc2N1`, with below 0.2 µM.
Under `COc1cc(Nc2ncc(Br)c(Oc3cccc4c3N(C(C)=O)CCC4)n2)cc(OC)c1OC` stands above 2 µM.
In the case of `COc1cc(Nc2ncc(Br)c(Oc3ccccc3CN(C)C)n2)cc(OC)c1OC`, the IC50 is above 2 µM.
Then `O=C(C1CC1)N1CCc2cc(Nc3ncc(C(F)(F)F)c(NC4CC4)n3)ccc2C1`, with below 0.2 µM.
Under `COc1cc(Nc2ncc(Br)c(Oc3ccccc3NC(=O)C(C)(C)C)n2)cc(OC)c1OC` stands above 2 µM; under `COc1cc(Nc2ncc(Br)c(Oc3cccc4[nH]nnc34)n2)cc(OC)c1OC`, above 2 µM.
Under `COc1cc(Nc2ncc(Br)c(Oc3ccccc3CNC(C)=O)n2)cc(OC)c1OC` stands above 2 µM.
Regarding `COc1cc(Nc2nc(Oc3cccc4c3CCCC4)ncc2Br)cc(O)c1OC`, the IC50 is above 2 µM.
`COc1cccc(Nc2nc(Nc3ccc(OC(F)(F)F)c(Cl)c3)ncc2C(F)(F)F)c1`: the IC50 is above 2 µM.

What is called IC50 is the concentration that gives 50% inhibition.
